From patent US20190264146A1, “An Antimicrobial Composition” (priority 2015, published 2019)

Experiments:
Test in all cases: Microdilution test (MIC/MBC)
Format in all cases: cell-based
Settings in all cases: lower line of pair, sub-cultivation 72 h
E. cloacae = tested on: E. cloacae
Protocol: (§1) Minimum inhibitory concentration (MIC) is the lowest concentration of an antimicrobial that will inhibit the visible growth of a microorganism after overnight incubation. Minimum inhibitory concentrations are important in diagnostic laboratories to confirm resistance of microorganisms to an antimicrobial agent and to monitor the activity of new antimicrobial agents. A MIC is the most basic laboratory measurement of the activity of an antimicrobial agent against an organism.
(§2) The minimum inhibitory and bactericidal concentrations (MICs and MBCs) can be determined using 96-well microtitre plates. The bacterial suspension is adjusted with sterile saline to a concentration of 1.0×10^5 cfu/m L. Compounds to be investigated are dissolved in broth LB medium (100 μL) with bacterial inoculum (1.0×10^4 cfu per well) to achieve the wanted concentrations (0.02-15.0 μL g/mL). The microplates are incubated for 24 h at 28° C. […] The MBCs are determined by serial sub-cultivation of 2 μL into microtitre plates containing 100 μL of broth per well and further incubation for 72 h. The lowest concentration with no visible growth is defined as the MBC, indicating 99.5% killing of the original inoculum. The optical density of each well is measured at a wavelength of 655 nm by Microplate manager 4.0 (Bio-Rad Laboratories) and compared with a blank and the positive control. Streptomycin is used as a positive control using the same concentrations as in the disc diffusion test. Two replicates were done for each oil and each component.

S. aureus = tested on: S. aureus
Protocol: as §1, §2

L. monocytogenes = tested on: L. monocytogenes
Protocol: as §1, §2

S. epidermidis = tested on: S. epidermidis
Protocol: as §1, §2

S. enteritidis = tested on: S. enteritidis
Protocol: as §1, §2

P. mirabilis = tested on: P. mirabilis
Protocol: as §1, §2

P. aeruginosa = tested on: P. aeruginosa
Protocol: as §1, §2

S. typhimurium = tested on: S. typhimurium
Protocol: as §1, §2

B. subtilis = tested on: B. subtilis
Protocol: as §1, §2

E. coli = tested on: E. coli
Protocol: as §1, §2

M. flavus = tested on: M. flavus
Protocol: as §1, §2

Compound | MBC (E. cloacae) [μL g/mL] | MBC (S. aureus) [μL g/mL] | MBC (L. monocytogenes) [μL g/mL] | MBC (S. epidermidis) [μL g/mL] | MBC (S. enteritidis) [μL g/mL] | MBC (P. mirabilis) [μL g/mL] | MBC (P. aeruginosa) [μL g/mL] | MBC (S. typhimurium) [μL g/mL] | MBC (B. subtilis) [μL g/mL] | MBC (E. coli) [μL g/mL] | MBC (M. flavus) [μL g/mL]
CC12CCC(CC1)C(C)(C)O2 [1,8 cineole (eucalyptol)] | 8.0 | 6.0 | 6.0 | 5.0 | 6.0 | 8.0 | 9.0 | 6.0 | 5.0 | 8.0 | 5.0
C=C(C)[C@H]1CC=C(C)CC1 [Limonene] | 10.0 | 8.0 | 10.0 | 8.0 | 10.0 | 15.0 | 15.0 | 10.0 | 7.0 | 12.0 | 7.0
C=C1CCC2CC1C2(C)C (stereo not drawn) [beta pinene] | 10.0 | 7.5 | 10.0 | 6.5 | 9.0 | 10.0 | 13.0 | 9.0 | 6.0 | 10.0 | 5.5
